These results are taken from patent EP0181109B1, “N6-benzopyrano- and benzothiopyrano-adenosines” (WARNER-LAMBERT COMPANY, priority 1984, dated 1986).

The target of assay [1] is T1, adenosine A1 receptor (Rattus norvegicus, UniProt P25099).
T1 construct: Whole brain minus cerebellum and brainstem from male Long Evans rats (150-200 g) was homogenized; from tissue; host or cells: rat whole brain minus cerebellum and brainstem (membrane homogenate)
T1 sequence (P25099 1-326): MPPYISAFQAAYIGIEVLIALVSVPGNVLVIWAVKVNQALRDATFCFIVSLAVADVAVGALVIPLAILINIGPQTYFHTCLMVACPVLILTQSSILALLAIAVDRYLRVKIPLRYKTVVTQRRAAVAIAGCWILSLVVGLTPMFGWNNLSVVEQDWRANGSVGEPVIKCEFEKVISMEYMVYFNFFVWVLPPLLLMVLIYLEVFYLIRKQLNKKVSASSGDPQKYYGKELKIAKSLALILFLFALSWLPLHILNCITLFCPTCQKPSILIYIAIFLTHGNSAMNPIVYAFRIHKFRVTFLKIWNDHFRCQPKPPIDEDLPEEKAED
Description: Adenosine Receptor Binding - A1 Receptor Affinity (RBA 1), [3H]-CHA displacement. The following applies: rat whole brain membranes, 1.0 nM [3H]-CHA, one hour at 25°C. Here is the method: Whole brain minus cerebellum and brainstem from male Long Evans rats (150-200 g) was homogenized in 30 volumes of ice-cold 0.05 M Tris-HCI buffer pH 7.7 using a Brinkman Polytron PT-10, (setting number 6 for 20 seconds) and centrifuged for ten minutes at 20,000 x g (Sorvall RC-2), 4°C. The supernatant was discarded, and the pellet was resuspended and centrifuged as before. The pellet was resuspended in 20 ml Tris-HCI buffer containing two International Units/ml of adenosine deaminase (Sigma Type III from calf intestinal mucosa), incubated at 37°C for 30 minutes, then subsequently at 0°C for ten minutes. The homogenate was again centrifuged, and the final pellet was resuspended in ice-cold 0.05 M Tris-HCI buffer pH 7.7 to a concentration of 20 mg/ml original wet tissue weight and used immediately.
Tissue homogenate (10 mg/ml) was incubated in 0.05 M Tris-HCI buffer pH 7.7 containing 1.0 nM [^3H]-N^6-cyclohexyladenosine (^3H]-CHA) with or without test agents in triplicate for one hour at 25°C. Incubation volume was 2 ml. Unbound [^3H]-CHA was separated by rapid filtration under reduced pressure through Whatman glass fiber (GF/B) filters. The filters were rinsed three times with 5 ml of ice cold 0.05 M Tris-HCI buffer pH 7.7. The radio-labele ligand retained on the filter was measured by liquid scintillation spectrophotometry after shaking the filters for one hour or longer on a mechanical shaker in 10 ml of Beckman Ready-Solv HP scintillation cocktail.
Nonspecific binding was defined as the binding which occurred in the presence of 1 mM theophylline. The concentration of test agent which inhibited 50% of the specific binding (IC50) was determined by nonlinear computer curve fit. The Scatchard plot was calculated by linear regression of the line obtained by plotting the amount of radioligand bound (pmoles/gram of tissue) versus
• bound radioligand • free radioligand Since the amount of radioligand bound was a small fraction of the total amount added, free radioligand was defined as the concentration (nM) of radioligand added to the incubation mixture. The Hill coefficient was calculated by linear regression of the line obtained by plotting the log of the bound radioligand vs the log of the • bound radioligand • Bmax - bound radioligand • The maximal number of binding sites (Bmax) was calculated from the Scatchard plot.

The target of assay [2] is T2, adenosine A2 receptor (Rattus norvegicus, UniProt P30543).
T2 construct: Brains were thawed and then kept on ice while the striata were dissected out; tissue Pel-Freez (Rogers, Arkansas); host or cells: rat striatum (membranes)
T2 sequence (P30543 whole entry): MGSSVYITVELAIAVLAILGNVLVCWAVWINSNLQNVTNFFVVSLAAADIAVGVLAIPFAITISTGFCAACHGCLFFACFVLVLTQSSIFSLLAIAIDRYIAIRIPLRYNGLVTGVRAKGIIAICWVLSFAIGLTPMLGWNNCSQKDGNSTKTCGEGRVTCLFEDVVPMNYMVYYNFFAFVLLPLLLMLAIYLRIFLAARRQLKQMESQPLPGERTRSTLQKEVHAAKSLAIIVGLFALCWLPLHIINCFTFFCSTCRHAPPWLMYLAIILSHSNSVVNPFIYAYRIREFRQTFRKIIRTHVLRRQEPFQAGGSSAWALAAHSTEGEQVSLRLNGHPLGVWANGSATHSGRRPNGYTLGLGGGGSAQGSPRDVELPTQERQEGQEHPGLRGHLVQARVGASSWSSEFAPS
Description: Adenosine Receptor Binding - A2 Receptor Affinity (RBA2), [3H]NECA displacement in striatal membranes. The following applies: 4 nM [3H]NECA, 50 nM N6-cyclopentyladenosine, 60 minutes at 25°C, read-out: RBA-2 (IC50, A2 receptor affinity). Here is the method:
Brains from 200-500 g mixed sex Sprague-Dawley rats were purchased from Pel-Freez (Rogers, Arkansas). Fresh brains from male Long-Evans hooded rats (Blue Spruce Farms, Altamont, NY) gave essentially identical results. Brains were thawed and then kept on ice while the striata were dissected out. Striata were disrupted in 10 vol of ice-cold 50 mM Tris·HCl (pH 7.7 at 25°C, pH 8.26 at 5°C) (Tris) for 30 seconds in a Polytron PT―10 (Brinkmann) at setting 5. The suspension was centrifuged at 50,000 xg for ten minutes, the supernatant discarded, the pellet resuspended in 10 vol ice-cold Tris as above, recentrifuged, resuspended at 1 g/5 ml, and stored in plastic vials at -70°C (stable for at least six months). When needed, tissue was thawed at room temperature, disrupted in a Polytron, and kept on ice until used.
All incubations were for 60 minutes at 25°C in 12 x 75 mm glass tubes containing 1 ml Tris with 5 mg original tissue weight of rat weight of rat striatal membranes, 4 nM [^3H]-N-ethyl adenosine-5'-carboxamide ([^3H]NECA), 50 nM N^s-cyclopentyladenosine (to eliminate A1 receptor binding), 10 mM MgCI2, 0.1 units/ml of adenosine deaminase and 1% dimethylsulfoxide. N^6-Cyclopentyladenosine was dissolved at 10 mM in 0.02 N HCI and diluted in Tris. Stock solutions and dilutions of N^6-cyclopentyladenosine could be stored at -20°C for several months. Test compounds were dissolved at 10 mM in dimethylsulfoxide on the same day as the experiment, and diluted in dimethylsulfoxide to 100x the final incubation concentration. Control incubations received an equal volume (10 µl) of dimethylsulfoxide; the resulting concentration of dimethylsulfoxide had no effect on binding. [^3H]NECA was diluted to 40 nM in Tris. The membrane suspension (5 mg/0.79 ml) contained sufficient MgC12 and adenosine deaminase to give 10 mM and 0.1 units/ml, respectively, final concentration in the incubation. […] After all additions, the rack of tubes was vortexed, and the tubes were then incubated for 60 min at 25°C in a shaking water bath. The rack of tubes was vortexed an additional time halfway through the incubation.
Incubations were terminated by filtration through 2.4 cm GF/B filters under reduced pressure. Each tube was filtered as follows: the contents of the tube were poured onto the filter, 4 ml of ice-cold Tris were added to the tube and the contents poured onto the filter, and the filter was washed twice with 4 ml of ice-cold Tris. The filtration was complete in about 12 seconds. Filters were put in scintillation vials, 8 ml of Formula 947 scintillation fluid added, and the vials left overnight, shaken, and counted in a liquid scintillation counter at 40% efficiency.
Nonspecific binding was defined as binding in the presence of […] N^6-cyclopentyladenosine, and specific binding was defined as total binding minus nonspecific binding. The IC50 was calculated by weighted nonlinear least squares curve-fitting to the mass action equation. [formula] • where Y is cpm bound • T is cpm total binding without drug • S is cpm specific binding without drug • D is the concentration of drug • and K is the IC50 of the drug Weighting factors were calculated under the assumption that the standard deviation was proportional to the predicted value of Y. Nonspecific binding was treated as a very large (infinite) concentration of drug in the computer analysis.

On to `Cc1ccc(C(C)C)c2c1CC(Nc1ncnc3c1ncn3[C@@H]1O[C@H](CO)[C@@H](O)[C@H]1O)CO2` (some centres unmarked) [Example 12, N^6-[8-lsopropyl-5-methyl-3-chromanylamino]adenosine], for which the results for the IC50 in assay [1] and in assay [2] were 188 nM and 1540 nM, respectively.
